Results reported in patent US20250171459A1, “2-METHYL-4',5'-DIHYDROSPIRO[PIPERIDINE-4,7'-THIENO[2,3-C]PYRAN] DERIVATIVES AS INHIBITORS OF APOL1 AND METHODS OF USING SAME” (Vertex Pharmaceuticals Incorporated, priority 2022, published 2025).

What follows are molecules tested against T1, APOL1 (Homo sapiens, UniProt O14791) (assay: MultiTox-Fluor Multiplex Cytotoxicity Assay in tet-inducible APOL1 T-REx-HEK293 cells (cell rescue, ratio of dead to live cells)). Conditions: tet-inducible transgenic APOL1 T-REx-HEK293 cell lines, 50 ng/mL tet, 24 hours; read-out: IP50 (i.e., IC50 for cell proliferation).
T1 sequence (O14791 1-398 S342G/I384M): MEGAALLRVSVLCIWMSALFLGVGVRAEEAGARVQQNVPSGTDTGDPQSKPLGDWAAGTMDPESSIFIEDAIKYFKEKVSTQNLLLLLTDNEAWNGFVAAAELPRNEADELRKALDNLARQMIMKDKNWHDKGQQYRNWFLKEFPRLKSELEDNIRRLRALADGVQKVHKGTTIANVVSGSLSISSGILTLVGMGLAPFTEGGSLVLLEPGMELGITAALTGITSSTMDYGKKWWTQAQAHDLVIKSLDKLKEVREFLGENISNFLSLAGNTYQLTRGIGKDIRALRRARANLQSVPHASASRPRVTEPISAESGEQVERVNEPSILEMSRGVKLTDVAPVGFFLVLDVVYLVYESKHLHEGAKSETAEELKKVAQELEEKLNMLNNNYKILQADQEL
Assay type: cell-based
Outline: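 T-REx-HEK293 cells with tet-inducible APOL1 were treated with compound (10 μM top, 10-point 3-fold dilution, duplicate) plus 50 ng/mL tetracycline for 24 h at 37° C, in DMEM with 2% tet-free FBS. MultiTox-Fluor protease signals gave a dead/live ratio, normalized to no tet (100% viability) and tet alone (0%).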
In the case of C[C@H]1C[C@@]2(CCN1C1CCCC1O)OCCc1cc(C(F)(F)F)sc12 (stereo partly drawn) [Compound 864, 2-[(2′S,7R)-2′-methyl-2-(trifluoromethyl)spiro[4,5-dihydrothieno[2,3-c]pyran-7,4′-piperidine]-1′-yl]cyclopentanol], the IC50 is reported as 0.1 to 0.5 µM.
In the case of C[C@H]1C[C@@]2(CCN1Cc1cn(CC(C)(CO)CO)nn1)OC[C@](O)(C(F)F)c1cc(Cl)sc12 [Compound 840], the IC50 is reported as < 0.1 µM.
For C[C@H]1C[C@@]2(CCN1CC1CC1)OCCc1cc(CC(F)F)sc12 [Compound 568], the IC50 was < 0.1 µM.
Molecule C[C@H]1C[C@@]2(CCN1Cc1cn(CCS(C)(=O)=O)nn1)OCCc1c2sc(C(F)(F)F)c1C(=O)NCC(F)F [Compound 1009] has an IC50 of 0.5 to 1 µM.
CCc1cc2c(s1)CCOC21CCN(Cc2ccc(C(=O)NC(C)(CC)CO)nc2)CC1 (stereo not drawn) [Compound 1045] was tested, and the IC50 was < 0.1 µM.
CCc1cc2c(s1)CCO[C@@]21CCN(Cc2cn(CCNC(=O)c3ccncc3)nn2)[C@@H](C)C1 [Compound 42] was tested, and the IC50 was < 0.1 µM.
CCc1cc2c(s1)CCO[C@@]21CCN(CC2CN(C(=O)OC(C)(C)C)C2)[C@@H](C)C1 [Compound 420, tert-butyl 3-[[(2′S,4R)-2-ethyl-2′-methyl-spiro[6,7-dihydrothieno[3,2-c]pyran-4,4′-piperidine]-1′-yl]methyl]azetidine-1-carboxylate] was tested, and the IC50 was < 0.1 µM.
In the case of CCc1cc2c(s1)CCO[C@@]21CCN(C[C@H]2C[C@@H](NC(=O)C(O)C(F)(F)F)C2)[C@@H](C)C1 (stereo partly drawn) [Compound 339], the IC50 is reported as < 0.1 µM.
For C[C@H]1C[C@@]2(CCN1Cc1cccc(NS(C)(=O)=O)c1)OCCc1cc(Cl)sc12 [Compound 641], the IC50 was 0.1 to 0.5 µM.
C[C@H]1C[C@@]2(CCN1Cc1cnn(CCS(C)(=O)=O)c1)OCCc1sc(Cl)cc12 [Compound 518] was tested, and the IC50 was < 0.1 µM.
For C[C@H]1C[C@@]2(CCN1Cc1cnn(CC3CC(C)(C)C(=O)O3)c1)OCCc1c2sc(C(F)(F)F)c1CO (stereo partly drawn) [Compound 983], the IC50 was < 0.1 µM.
For C[C@H]1C[C@@]2(CCN1Cc1cn(CCS(C)(=O)=O)nn1)OCCc1sc(C(F)(F)F)cc12 [Compound 525, (2′S,4R)-2′-methyl-1′-[[1-(2-methylsulfonylethyl)triazol-4-yl]methyl]-2-(trifluoromethyl)spiro[6,7-dihydrothieno[3,2-c]pyran-4,4′-piperidine]], the IC50 was < 0.1 µM.
With CCc1cc2c(s1)CCO[C@@]21CCN(CC2CN(C(=O)Cc3sc(O)nc3O)C2)[C@@H](C)C1 [Compound 488] the IC50 was < 0.1 µM.
CCc1cc2c(s1)CCO[C@@]21CCN(C[C@H]2C[C@@H](NC(=O)c3cnn(CC(F)(F)F)c3)C2)[C@@H](C)C1 [Compound 310] was tested, and the IC50 was 0.1 to 0.5 µM.
CCc1cc2c(s1)CCOC21CCN(Cc2ccc(C(=O)N(C)[C@H]3CC[C@H](O)CC3)nc2)CC1 [Compound 1065] showed an IC50 of 0.5 to 1 µM.
With C[C@H]1C[C@@]2(CCN1Cc1cnn(C[C@@H](O)C(C)(C)O)c1)OCCc1c2sc(C(F)(F)F)c1CO [Compound 888, (2R)-1-[4-[[(2′S, 7R)-3-(hydroxymethyl)-2′-methyl-2-(trifluoromethyl)spiro[4,5-dihydrothieno[2,3-c]pyran-7,4′-piperidine]-1′-yl]methyl]pyrazol-1-yl]-3-methyl-butane-2,3-diol] the IC50 was < 0.1 µM.
With Cc1cncc(CN2CC[C@]3(C[C@@H]2C)OCCc2c3sc(Cl)c2CO)c1 [Compound 723] the IC50 was 0.1 to 0.5 µM.
Work on CCc1cc2c(s1)CCO[C@@]21CCN(Cc2cn(C(C)(C)CCS(C)(=O)=O)nn2)[C@@H](C)C1 [Compound 192] yielded an IC50 of 0.5 to 1 µM.
For CCc1cc2c(s1)CCO[C@@]21CCN(C[C@H]2C[C@@H](NC(=O)CO)C2)[C@@H](C)C1 [Compound 351], the IC50 was 0.1 to 0.5 µM.
For CCc1cc2c(s1)CCOC21CCN(Cc2cnc(N[C@H]3CC[C@H](O)CC3)nc2)CC1 [Compound 1073, (1r,4r)-4-((5-((2′-ethyl-6′,7′-dihydrospiro[piperidine-4,4′-thieno[3,2-c]pyran]-1-yl)methyl)pyrimidin-2-yl)amino)cyclohexan-1-ol], the IC50 was < 0.1 µM.
CCc1cc2c(s1)CCO[C@@]21CCN(C[C@H]2C[C@@H](NC(=O)OCc3ccccc3)C2)[C@@H](C)C1 [Compound 380] was tested, and the IC50 was 0.1 to 0.5 µM.
For CCc1cc2c(s1)CCO[C@@]21CCN(Cc2cn(C3CN(S(=O)(=O)c4c[nH]cn4)C3)nn2)[C@@H](C)C1 [Compound 2], the IC50 was < 0.1 µM.
COc1cncc(CN2CC[C@]3(C[C@@H]2C)OC[C@H](O)c2cc(Cl)sc23)c1 [Compound 806] was tested, and the IC50 was 0.1 to 0.5 µM.
For Cc1cn2nc(CN3CC[C@]4(C[C@@H]3C)OCCc3cc(Cl)sc34)cc2c(NC2CC2)n1 [Compound 637], the IC50 was < 0.1 µM.
In the case of CCc1cc2c(s1)CCO[C@@]21CCN([C@H]2C[C@H](NC(=O)OC(C)(C)C)C2)[C@@H](C)C1 [Compound 297], the IC50 is reported as 0.5 to 1 µM.
With CCc1cc2c(s1)CCO[C@@]21CCN(C[C@H]2C[C@@H](NS(=O)(=O)C3COC3)C2)[C@@H](C)C1 [Compound 401] the IC50 was < 0.1 µM.
In the case of CCc1cc2c(s1)CCO[C@@]21CCN(C[C@H](O)c2ccccc2)[C@@H](C)C1 [Compound 246], the IC50 is reported as < 0.1 µM.
C[C@H]1C[C@@]2(CCN1Cc1ccc(N3CCCC3=O)cc1)OCCc1c2sc(Cl)c1CO [Compound 714] was tested, and the IC50 was < 0.1 µM.
Molecule C[C@H]1C[C@@]2(CCN1Cc1cccc(F)c1O)OC[C@H](O)c1cc(Cl)sc12 [Compound 801] has an IC50 of 0.5 to 1 µM.
In the case of Cc1nnc(Cn2cc(CN3CC[C@]4(C[C@@H]3C)OCCc3c4sc(C(F)(F)F)c3CO)cn2)o1 [Compound 923], the IC50 is reported as < 0.1 µM.
In the case of CCc1cc2c(s1)CCO[C@@]21CCN(Cc2cn(CC3(S(C)(=O)=O)CCCC3)nn2)[C@@H](C)C1 [Compound 157], the IC50 is reported as < 0.1 µM.
With CCc1cc2c(s1)CCO[C@@]21CCN(C[C@H]2C[C@@H](NC(=O)c3cnc(C)s3)C2)[C@@H](C)C1 [Compound 320] the IC50 was < 0.1 µM.
CCc1cc2c(s1)CCO[C@@]21CCN(Cc2cnc(N[C@@H]3CCCC[C@H]3O)nc2)[C@@H](C)C1 [Compound 223] was tested, and the IC50 was < 0.1 µM.
C[C@H]1C[C@@]2(CCN1Cc1cc(F)c[nH]c1=O)OCCc1cc(CC(F)F)sc12 [Compound 588] was tested, and the IC50 was 0.5 to 1 µM.
CCc1cc2c(s1)CCO[C@@]21CCN(Cc2cn(CC(=O)NCCO)nn2)[C@@H](C)C1 [Compound 81] was tested, and the IC50 was 0.1 to 0.5 µM.
With CC(C)Cc1cc2c(s1)CCO[C@@]21CCN(Cc2cnn(C)c2)[C@@H](C)C1 [Compound 521] the IC50 was < 0.1 µM.
For CCc1cc2c(s1)CCO[C@@]21CCN(CC2CN(C(=O)Cc3cnn(C)c3)C2)[C@@H](C)C1 [Compound 455], the IC50 was 0.1 to 0.5 µM.
Work on CCc1cc2c(s1)CCOC21CCN(Cc2cn(CC3(O)CCCC3)nn2)CC1 [Compound 1082] yielded an IC50 of 0.1 to 0.5 µM.
With CCc1cc2c(s1)CCO[C@@]21CCN(Cc2cn(CCSCCO)nn2)[C@@H](C)C1 [Compound 23] the IC50 was < 0.1 µM.
Work on CCc1cc2c(s1)CCOC21CCN(Cc2cn(CC(O)C(C)(C)O)nn2)CC1 (stereo not drawn) [Compound 1079, 1-(4-((2′-ethyl-6′,7′-dihydrospiro[piperidine-4,4′-thieno[3,2-c]pyran]-1-yl)methyl)-1H-1,2,3-triazol-1-yl)-3-methylbutane-2,3-diol] yielded an IC50 of 0.1 to 0.5 µM.
For C[C@H]1C[C@@]2(CCN1Cc1cnn(C[C@H](O)C(=O)NC3CC3)c1)OC[C@@H](O)c1cc(C(F)(F)F)sc12 [Compound 999], the IC50 was < 0.1 µM.
C[C@H]1C[C@@]2(CCN1Cc1cn(CC(C)(CO)CO)nn1)OCCc1c2sc(C(F)(F)F)c1CO [Compound 1003] was tested, and the IC50 was < 0.1 µM.
In the case of CCc1cc2c(s1)CCO[C@@]21CCN(CC2CN(C(=O)c3ncc(OC)o3)C2)[C@@H](C)C1 [Compound 466], the IC50 is reported as < 0.1 µM.
In the case of CCc1cc2c(s1)CCO[C@@]21CCN(Cc2cc(C)on2)[C@@H](C)C1 [Compound 287], the IC50 is reported as < 0.1 µM.
C[C@H]1C[C@@]2(CCN1Cc1cnn(CC(=O)N(C)C)c1)OCCc1cc(Cl)sc12 [Compound 700] was tested, and the IC50 was < 0.1 µM.
CCc1cc2c(s1)CCO[C@@]21CCN(Cc2cn(C(C)(CO)CO)nn2)[C@@H](C)C1 [Compound 177] gave an IC50 of 0.5 to 1 µM.
With Cc1nccn1-c1ccc(CN2CC[C@]3(C[C@@H]2C)OCCc2cc(Cl)sc23)cc1 [Compound 671] the IC50 was < 0.1 µM.
Molecule CCc1cc2c(s1)CCO[C@@]21CCN(C[C@H]2C[C@@H](NC(=O)C3CC(C(F)(F)F)C3)C2)[C@@H](C)C1 (stereo partly drawn) [Compound 331] has an IC50 of 0.1 to 0.5 µM.
CCc1cc2c(s1)CCO[C@@]21CCN(Cc2cn(C(CC)C(=O)N3CCOCC3)nn2)[C@@H](C)C1 (stereo partly drawn) [Compound 172] was tested, and the IC50 was 0.1 to 0.5 µM.
With C[C@H]1C[C@@]2(CCN1Cc1cnn(Cc3cnccn3)c1)OCCc1c2sc(C(F)(F)F)c1CO [Compound 902] the IC50 was < 0.1 µM.
C[C@H]1C[C@@]2(CCN1Cc1cnn(CC3CNC(=O)C3)c1)OCCc1c2sc(C(F)(F)F)c1CO (stereo partly drawn) [Compound 921] was tested, and the IC50 was < 0.1 µM.
For CCc1cc2c(s1)CCO[C@@]21CCN(Cc2ccc(N[C@@H](CO)[C@@H](C)O)nc2)[C@@H](C)C1 [Compound 214], the IC50 was < 0.1 µM.
CCc1cc2c(s1)CCO[C@@]21CCN(Cc2cn(C[C@H](C)O)nn2)[C@@H](C)C1 [Compound 141] was tested, and the IC50 was 0.1 to 0.5 µM.
With CCc1cc2c(s1)CCO[C@@]21CCN(CC2CN(C(=O)C3C4COCC43)C2)[C@@H](C)C1 (stereo partly drawn) [Compound 451] the IC50 was 0.1 to 0.5 µM.
In the case of CCc1cc2c(s1)CCO[C@@]21CCN(Cc2cn(CC(CC)(CC)OC)nn2)[C@@H](C)C1 [Compound 97], the IC50 is reported as < 0.1 µM.
For CCc1cc2c(s1)CCO[C@@]21CCN(Cc2ccc(NC(C)(C)CO)nc2)[C@@H](C)C1 [Compound 228], the IC50 was < 0.1 µM.
For CCc1cc2c(s1)CCO[C@@]21CCN(C[C@H]2C[C@@H](NC(=O)Cc3cc(C)cc(F)c3)C2)[C@@H](C)C1 [Compound 313], the IC50 was < 0.1 µM.
